Source: patent US8106003B2, “Peptides and methods for the treatment of inflammatory disease” (Auckland Uniservices Limited, priority 2004, dated 2012)

Tested on: β2 integrin (αLβ2)-mediated adhesion of H9 cells to ICAM-1
Assay: Cell adhesion assay: H9 cells to ICAM-1-Fc (integrin specificity)
Format: cell-based, human
Settings: Mn++-activated H9 cells
Experimental: Cell adhesion assays. Lab-Tek 16-well glass slides (Nunc) or flat-bottomed 96-well maxisorb plates (Nunc) were coated with purified mouse MAdCAM-1-Fc, human VCAM-1-Fc, and human ICAM-1-Fc (70 to 100 μl of 5 to 10 μg/ml), and incubated at 4° C. overnight. Slides were washed once with PBS, and blocked with FCS for 2 h at room temperature. Slides were washed with Hanks balanced salt solution (HBSS) containing 10 mM Hepes. Cells were either left unlabeled or labeled with the fluorescent dye chloromethyl fluorescein diacetate (CMFDA; Molecular Probes, Oregon), and activated by resuspension in HBSS containing 10 mM Hepes supplemented with 2 mM Ca^++ and 2 mM Mn^++. Cells were alternatively activated with 50 ng/ml PMA, or by incubating with AlF4^− (10 mM NaF and 40 µM AlCl3). They were preincubated with peptides at different concentrations for 10 min at room temperature, checked for viability by trypan blue exclusion, and then 10^6 cells added to each coated well and left to adhere for 30 min at room temperature. […] The number of adherent cells was determined by counting the number of adherent cells in four independent fields at 100× magnification under an inverted microscope. […] The fluorescence of CMFDA-labeled adherent cells was measured using a VICTOR 1420 multilabel counter (Wallac). […]

For “YDDREY: cell permeable YDRREY (SEQ ID NO. 1) peptide, carrier not stated at this place”, the “inhibition of H9 cell binding to ICAM-1” value was “neither the cell permeable YDDREY (SEQ ID NO. 1) peptide nor the β3 CARD were able to block”.
